Data as given in the CheMixHub viscosity set.
“And” between values parts separate entries of the source, which are not always exact repeats. Equal entries are not always repeated.

Assay: xn = mol fraction of the nth substance listed

CCC(=O)CC + COC(=O)c1ccccc1
viscosity [mPa·s], 101 kPa
Conditions	x2 = 0.0869	x2 = 0.176	x2 = 0.2669	x2 = 0.3636	x2 = 0.4616	x2 = 0.5586	x2 = 0.6631	x2 = 0.7718	x2 = 0.8792
303.15 K	0.486	0.557	0.634	0.722	0.822	0.932	1.07	1.235	1.422
313.15 K	0.43	0.485	0.548	0.619	0.7	0.79	0.896	1.025	1.169

C1CCCC1 + CCC(C)=O
viscosity [mPa·s], 101.33 kPa
Conditions	293.15 K	298.15 K	303.15 K
x1 = 0.0472	0.397	0.377	0.358
x1 = 0.0981	0.395	0.375	0.358
x1 = 0.1929	0.394	0.372	0.354
x1 = 0.2932	0.39	0.37	0.353
x1 = 0.3753	0.39	0.37	0.352
x1 = 0.4966	0.393	0.373	0.354
x1 = 0.6189	0.394	0.374	0.355
x1 = 0.6838	0.398	0.377	0.359
x1 = 0.8034	0.407	0.387	0.367
x1 = 0.9061	0.419	0.397	0.377
x1 = 0.9499	0.426	0.405	0.383

CCC(=O)CC + CN(C)c1ccccc1
viscosity [mPa·s], 101 kPa
Conditions	303.15 K	308.15 K
x2 = 0.0612	0.548	0.499
x2 = 0.1145	0.645	0.588
x2 = 0.1652	0.732	0.668
x2 = 0.2302	0.832	0.764
x2 = 0.3025	0.928	0.859
x2 = 0.3741	1.006	0.935
x2 = 0.4256	1.053	0.98
x2 = 0.5023	1.105	1.029
x2 = 0.5714	1.137	1.056
x2 = 0.6325	1.155	1.069
x2 = 0.7045	1.165	1.074
x2 = 0.7812	1.167	1.073
x2 = 0.8512	1.165	1.073

OCc1ccccc1 + c1ccccc1
Conditions	viscosity
293.15 K, 101.32 kPa, x1 = 0.03068	0.6725 mPa·s
293.15 K, 101.32 kPa, x1 = 0.04509	0.6903 mPa·s
293.15 K, 101.32 kPa, x1 = 0.1059	0.7825 mPa·s
293.15 K, 101.32 kPa, x1 = 0.1545	0.8652 mPa·s
293.15 K, 101.32 kPa, x1 = 0.1997	0.9735 mPa·s
298.15 K, 101.33 kPa, x1 = 0.1	0.7 mPa·s
298.15 K, 101.33 kPa, x1 = 0.2	0.855 mPa·s and 0.855 mPa·s
298.15 K, 101.33 kPa, x1 = 0.5	1.712 mPa·s and 1.712 mPa·s
298.15 K, 101.33 kPa, x1 = 0.8	3.267 mPa·s
303.15 K, 101 kPa, x1 = 0.1079	0.8732 mPa·s
303.15 K, 101 kPa, x1 = 0.2167	1.03 mPa·s
303.15 K, 101 kPa, x1 = 0.3472	1.291 mPa·s
303.15 K, 101 kPa, x1 = 0.4657	1.601 mPa·s
303.15 K, 101 kPa, x1 = 0.5516	1.877 mPa·s
303.15 K, 101 kPa, x1 = 0.6577	2.306 mPa·s
303.15 K, 101 kPa, x1 = 0.7244	2.653 mPa·s
303.15 K, 101 kPa, x1 = 0.868	3.594 mPa·s
303.15 K, 101 kPa, x1 = 0.9178	3.983 mPa·s
308.15 K, 101.33 kPa, x1 = 0.1	0.597 mPa·s
308.15 K, 101.33 kPa, x1 = 0.2	0.714 mPa·s
308.15 K, 101.33 kPa, x1 = 0.5	1.379 mPa·s
308.15 K, 101.33 kPa, x1 = 0.8	2.433 mPa·s
318.15 K, 101.33 kPa, x1 = 0.1	0.526 mPa·s
318.15 K, 101.33 kPa, x1 = 0.2	0.617 mPa·s
318.15 K, 101.33 kPa, x1 = 0.5	1.139 mPa·s
318.15 K, 101.33 kPa, x1 = 0.8	1.904 mPa·s
323.15 K, 101.33 kPa, x1 = 0.1	0.493 mPa·s
323.15 K, 101.33 kPa, x1 = 0.2	0.578 mPa·s and 0.575 mPa·s
323.15 K, 101.33 kPa, x1 = 0.5	1.026 mPa·s and 1.026 mPa·s
323.15 K, 101.33 kPa, x1 = 0.8	1.695 mPa·s

NCCO.O=S(=O)([N-]S(=O)(=O)C(F)(F)F)C(F)(F)F.[Li+] + O
323.15 K, 101 kPa
Conditions	viscosity [mPa·s]
x1 = 0.03	1.2
x1 = 0.0597	2.1
x1 = 0.1001	3.72
x1 = 0.1995	8.33
x1 = 0.298	23.19
x1 = 0.4016	56.22
x1 = 0.4908	103.5
x1 = 0.6602	251.5
x1 = 0.8109	498.1
x1 = 0.8996	741.6

CN1CCCC1=O + CN(C)C=O
viscosity [mPa·s], 101 kPa
Conditions	x2 = 0.1003	x2 = 0.2001	x2 = 0.2997	x2 = 0.4	x2 = 0.5007	x2 = 0.595	x2 = 0.7	x2 = 0.8	x2 = 0.9003
303.15 K	1.417	1.328	1.249	1.17	1.085	1.018	0.943	0.872	0.809
313.15 K	1.231	1.152	1.085	1.02	0.948	0.891	0.832	0.775	0.721
323.15 K	1.097	1.024	0.967	0.908	0.846	0.794	0.742	0.692	0.646

CC(C)(C)C1CCCCC1 + CCCCCCCCCCCCCCCC
viscosity [mPa·s], 102 kPa
Conditions	x1 = 0.1004	x1 = 0.2003	x1 = 0.3003	x1 = 0.4016	x1 = 0.5003	x1 = 0.6001	x1 = 0.7002	x1 = 0.8001	x1 = 0.8999
293.15 K	3.31	3.13	2.95	2.77	2.59	2.41	2.23	2.05	1.87
303.15 K	2.63	2.51	2.37	2.24	2.1	1.97	1.83	1.7	1.56
313.15 K	2.15	2.05	1.95	1.85	1.75	1.64	1.54	1.43	1.32
323.15 K	1.78	1.71	1.63	1.56	1.48	1.39	1.31	1.22	1.14

C1CCCC1 + C1COCO1
viscosity [mPa·s], 101.3 kPa
Conditions	x1 = 0.0988	x1 = 0.1997	x1 = 0.3005	x1 = 0.3997	x1 = 0.4992	x1 = 0.5979	x1 = 0.7027	x1 = 0.7987	x1 = 0.8995
298.15 K	0.5513	0.5176	0.4908	0.4685	0.4495	0.434	0.4216	0.4149	0.4124
313.15 K	0.4666	0.438	0.415	0.3968	0.3804	0.3679	0.3581	0.352	0.351

C1CCCC1 + CCCCCCCO
101.3 kPa
Conditions	viscosity [mPa·s]
298.15 K, x1 = 0.0352	5.482
298.15 K, x1 = 0.0593	5.221
298.15 K, x1 = 0.0988	4.844
298.15 K, x1 = 0.1481	4.446
298.15 K, x1 = 0.2145	3.924
298.15 K, x1 = 0.2684	3.481
298.15 K, x1 = 0.3065	3.175
298.15 K, x1 = 0.3655	2.729
298.15 K, x1 = 0.4052	2.452
298.15 K, x1 = 0.4333	2.255
298.15 K, x1 = 0.4668	2.039
298.15 K, x1 = 0.4932	1.889
298.15 K, x1 = 0.5131	1.773
298.15 K, x1 = 0.5247	1.71
298.15 K, x1 = 0.5389	1.629
298.15 K, x1 = 0.5545	1.546
298.15 K, x1 = 0.5728	1.45
298.15 K, x1 = 0.5972	1.348
298.15 K, x1 = 0.612	1.272
298.15 K, x1 = 0.6459	1.141
298.15 K, x1 = 0.6823	1.009
298.15 K, x1 = 0.7149	0.909
298.15 K, x1 = 0.7429	0.819
298.15 K, x1 = 0.7801	0.734
298.15 K, x1 = 0.8099	0.672
298.15 K, x1 = 0.8367	0.622
298.15 K, x1 = 0.876	0.559
298.15 K, x1 = 0.9139	0.507
298.15 K, x1 = 0.9562	0.455
298.15 K, x2 = 0.0123	0.422
308.15 K, x1 = 0.0706	3.806
308.15 K, x1 = 0.107	3.567
308.15 K, x1 = 0.2112	2.906
308.15 K, x1 = 0.2927	2.434
308.15 K, x1 = 0.3502	2.124
308.15 K, x1 = 0.3903	1.904
308.15 K, x1 = 0.4235	1.762
308.15 K, x1 = 0.4744	1.536
308.15 K, x1 = 0.5101	1.397
308.15 K, x1 = 0.5124	1.388
308.15 K, x1 = 0.5273	1.333
308.15 K, x1 = 0.5473	1.254
308.15 K, x1 = 0.5733	1.164
308.15 K, x1 = 0.5957	1.094
308.15 K, x1 = 0.6126	1.033
308.15 K, x1 = 0.6337	0.973
308.15 K, x1 = 0.6691	0.873
308.15 K, x1 = 0.6936	0.817
308.15 K, x1 = 0.7266	0.741
308.15 K, x1 = 0.7759	0.645
308.15 K, x1 = 0.8235	0.567
308.15 K, x1 = 0.8612	0.513
308.15 K, x1 = 0.9001	0.465
308.15 K, x1 = 0.9538	0.407
318.15 K, x1 = 0.0663	3.159
318.15 K, x1 = 0.1607	2.659
318.15 K, x1 = 0.2747	2.102
318.15 K, x1 = 0.3487	1.774
318.15 K, x1 = 0.4227	1.477
318.15 K, x1 = 0.4685	1.326
318.15 K, x1 = 0.504	1.204
318.15 K, x1 = 0.5407	1.097
318.15 K, x1 = 0.5754	1.006
318.15 K, x1 = 0.6027	0.936
318.15 K, x1 = 0.6281	0.877
318.15 K, x1 = 0.6529	0.814
318.15 K, x1 = 0.6898	0.743
318.15 K, x1 = 0.7214	0.681
318.15 K, x1 = 0.7581	0.617
318.15 K, x1 = 0.8025	0.549
318.15 K, x1 = 0.8554	0.475
318.15 K, x1 = 0.9198	0.402
318.15 K, x1 = 0.9672	0.359

O=S(=O)([O-])[O-].[Cu+2] + O
viscosity [mPa·s]
Conditions	308.15 K	313.15 K	323.15 K
101.3 kPa, x1 = 0.00112	0.742	0.673	0.5823
101.3 kPa, x1 = 0.002247	0.7918	0.7176	0.6001
101.3 kPa, x1 = 0.004484	0.8376	0.7579	0.6314
101.3 kPa, x1 = 0.008927	0.9348	0.8476	0.7076
101.3 kPa, x1 = 0.0177	–	0.977	0.817
101.33 kPa, x1 = 0.000905	0.7428	0.6739	0.5628
101.33 kPa, x1 = 0.002718	0.7922	0.7182	0.6005
101.33 kPa, x1 = 0.00453	0.838	0.7585	0.6319
101.33 kPa, x1 = 0.006344	0.8866	0.8013	0.6685
101.33 kPa, x1 = 0.008159	0.9348	0.8482	0.7082

OCc1ccccc1 + CCCCCC
viscosity [mPa·s], 101.3 kPa
Conditions	303.15 K	313.15 K	323.15 K
x1 = 0.0101	0.303	0.284	0.254
x2 = 0.0312	4.044	3.013	2.36
x2 = 0.0645	3.832	2.754	2.173
x2 = 0.0976	3.35	2.394	1.974
x2 = 0.1313	3.119	2.256	1.79
x2 = 0.1653	2.649	2.004	1.616
x2 = 0.2056	2.328	1.827	1.455
x2 = 0.255	1.972	1.615	1.327
x2 = 0.8792	0.364	0.335	0.307
x2 = 0.955	0.326	0.302	0.268
x2 = 0.9699	0.32	0.3	0.262
x2 = 0.9799	0.312	0.292	0.258
